Measurements published in a melting point compilation (Tetko et al.; mined from patent text by program, amines drawn as free bases though some values may be those of a salt).

SMILES	melting point [°C]
Nc1cc(Cl)c(I)c(Cl)c1	147 to 148
CC(=O)SCC(Cc1ccc(N(C)C)cc1)C(=O)Nc1cccc(C(=O)O)c1 (configuration not stated)	71 to 73
O=C(O)c1cc(F)c(O)nc1Nc1ccc(F)cc1F	213 to 216
O=C(CS(=O)Cc1ccc2c(c1)OCO2)NO (configuration not stated)	206
CC(=NOCC=Cc1ccccc1)C(=O)O	89 to 91
CC(=O)Oc1ccc(Br)cc1Cc1cc(Cl)cc(Cc2cc(Br)ccc2O)c1OC(C)=O	190 to 192
COc1ccc(N(CC(=O)NCC(=O)O)C(=O)c2ccc(Cl)cc2)cc1	138 to 140
ON=C1CC(c2ccccc2)Cc2ccccc21 (configuration not stated)	195
COC(=O)C=CCCC(C)C1CCC2C3CCC4CC(OC=O)CCC4(C)C3CC(OC=O)C12C (configuration not stated)	112 to 115
CC(C(O)c1ccc(OC(=O)c2ccc(CN3CCOCC3)cc2)cc1)N1CCC(O)(c2ccccc2)CC1 (configuration not stated)	172 to 173
NC(=O)c1ccc(Cn2ccc(NC(=S)NCC(F)(F)F)n2)cc1	205 to 206
Cc1ccc(C[C@H](NC(=O)[C@@H](NC(=O)OCc2ccccn2)C(C)C)[C@H](O)[C@H](Cc2ccccc2)NC(=O)[C@@H](NC(=O)OCc2ccccn2)C(C)C)cc1	195 to 198
C#Cc1cccc(NC(C)=O)c1	94 to 96
O=C(Nc1ccc(Cc2nnn[nH]2)cc1)C(F)(F)C(F)(F)F	183 to 185
O=C(O)c1ncn2c1CN=C(c1ccccc1)c1cc(Br)ccc1-2	> 250
COC(=O)c1cccc2[nH]cc(C=O)c12	135
O=S1(=O)CCN2CCCC(c3ccc(Oc4cccc(Cl)c4)cc3)C2=N1 (configuration not stated)	165 to 167
COCCOC(=O)OC[C@@H](O)[C@@H]1CC(c2ccc(-c3ccc(N4C[C@H](Cn5ccnn5)OC4=O)cc3F)cn2)=NO1	125
OCC1OC(n2cc(Cc3ccc(C4CC4)cc3)c3c(F)cccc32)C(O)C(O)C1O (configuration not stated)	110 to 112
NC(=O)N1c2ccccc2C(Cl)=C(Cl)c2ccccc21	265 to 270
O=C(O)COc1ccc(CCc2ccc(-c3ccc(C(F)(F)F)cc3)cc2)c2c1CCC2	188 to 190
CC(C)(O)C#Cc1ccc(F)cc1	124
O=C1Cc2cc(NCCCc3ccccc3)ccc2N1	120 to 122

SMILES	melting point [°C]
Oc1ccc(-c2c3ccccc3cc3sc4ccccc4c23)cc1O	188 to 189
Nc1ccc(C2CCC(=O)CC2)cc1	127 to 128
O=S(c1ccc(Cl)cc1)c1cc(C(F)(F)F)[nH]c1-c1ccc(Cl)cc1 (configuration not stated)	174 to 176
OCCN=C1c2ccccc2CCc2ccccc21	93 to 94
CCCCC(=O)NC(=O)C(c1ccccc1)c1ccccc1	83
CCCCNS(=O)(=O)CC(O)(CCCC)C(O)C(N)CC1CCCCC1 (configuration not stated)	164 to 165
CN(C)C1(c2cccc(F)c2)CCC(=CC(=O)NCCc2c[nH]c3ccccc23)CC1 (configuration not stated)	172 to 176
CCCC(c1ccccc1OCc1ccc(Cl)cc1Cl)n1ccnc1 (configuration not stated)	89 to 90
C=C=COc1ccc2cc3ccccc3cc2c1	90.3 to 95.6
Oc1ccc2c(c1O)Cc1ccccc1-2	159 to 162
C=CC(=O)O[C@H]1CC[C@H](c2ccccc2)CC1	67.3
O=C1COc2cc3c(cc21)C1(CO3)C(=O)N(CC2CCCO2)c2ccccc21 (configuration not stated)	142 to 144
O=C(O)CC(Cc1ccccc1)N1C(=O)c2ccccc2C1=O (configuration not stated)	123 to 124
O=C1CN2Cc3cccc(OCCCC(=O)N(CCO)CCCCC4CCCCC4)c3N=C2N1	110 to 111
Cc1ccc(S(=O)(=O)O[C@H]2CCN(S(=O)(=O)c3ccc(C)cc3)C2)cc1	110
CC(c1ccc(F)c(Br)c1)N(O)C(N)=O (configuration not stated)	125
CC(CNS(=O)(=O)c1ccc(-c2ccccn2)s1)N1CCC(Oc2ccc(F)c(F)c2)CC1 (configuration not stated)	153 to 154
Clc1ccc(COC(C=Cc2ccccc2)Cn2ccnc2)c(Cl)c1 (configuration not stated)	134
CCOC(=O)c1ccccc1S(=O)(=O)NC(=O)Nc1nc(Cl)cc(OC(F)(F)F)n1	148 to 151
Cc1ccc(S(=O)(=O)Oc2ccc(S(=O)(=O)C3Cc4ccccc4C3Cl)cc2)cc1 (configuration not stated)	176
Cc1ccc(C=NO)cc1Cl	66 to 68
COC(=O)c1cc(SC(=O)N(C)C)cc(SC(=O)N(C)C)c1	128 to 130

Now from value to compound:

melting point [°C]	SMILES
92 to 94	O=C/C=C/c1ccc(Cl)c(Cl)c1
142 to 143	COc1ccc(COc2nn(Cc3ccccc3)cc2C=O)cc1OCc1nc(-c2ccco2)oc1C
181	CCCC(C1CCCCC1)n1c(C(=O)OC)cnc1S (configuration not stated)
250 to 253	Cc1c(Cc2ccccc2)c(=O)n(C)c2cc(OCc3nnn[nH]3)cc(OCc3nnn[nH]3)c12
125 to 126	COc1cc(C=CN(C)C)c([N+](=O)[O-])cc1OC
120 to 122	O=C1CCN(c2ncc(-c3ccc(Cl)cc3Cl)nn2)CC1
158 to 160	CC1=C(C(=O)OCc2ccccc2)C(c2cccc([N+](=O)[O-])c2)c2c(ccnc2OC(C)C)N1 (configuration not stated)
139 to 140	Nc1ccnc(CCCCN2C(=O)c3ccccc3C2=O)n1
218 to 220	CC(=O)c1cc2c(s1)CCCC2NC(N)=O (configuration not stated)
184 to 185	Cc1ccc(N(C)S(=O)(=O)c2cccs2)c2[nH]c(-c3ncc(CO)s3)cc12
261 to 264	Cc1cccc(-c2c3c(cc4ccc5c(c24)OCO5)C(=O)NC3=O)c1
88 to 92	COc1cccc(C2C(CN(C)C)CC(=O)N2c2ccccc2)c1 (configuration not stated)
113 to 115	COc1ccc2cccnc2c1O
239 to 240	CNC(=O)c1c(-c2ccccn2)c2ccccc2n(C)c1=O
97 to 100	Cc1c(O)c(O)cc2ccccc12
196 to 198	COc1ncc(Br)c2nc(S(=O)(=O)Nc3c(Cl)cccc3Cl)nn12
184	Cc1csc2ccc3[nH]c4c(c3c12)CN(C(=O)OCCCN(C)C)CC4
181 to 182	CC(=O)N1CCN(c2ccc(-n3ccnc3)cc2)CC1
201 to 203	CCOC(=O)c1ccc(-c2cnc3c(c2)N(Cc2cc(F)ccc2F)C(=O)CN3)cc1

melting point [°C]	SMILES
> 290	CN1C(=O)C(c2cn(C)c3ccccc23)=C(c2cn(C)c3ccccc23)C1=O
300	NS(=O)(=O)c1ccc(-c2noc(-c3cnn4c(C(F)(F)F)cc(-c5cccc(C(F)(F)F)c5)nc34)n2)cc1
155 to 156	CCCc1nc2ccc(C(=O)NCc3ccc(N(C)C)cc3)cc2n1Cc1ccccc1Cl
155 to 157	CN1C(=O)C2(COc3cc4c(cc32)OCO4)c2c(Br)cccc21 (configuration not stated)
163 to 165	COc1ccccc1N1CCN(CC(O)COc2cc(C)c(O)c(C)c2C)CC1 (configuration not stated)
168	CCC(=O)c1cc[nH]c(=O)c1
71.2	CC(C)C(c1cnccc1C(F)(F)F)N(C)C(=O)Cc1ccccc1 (configuration not stated)
233	Cc1cnc(NC(=O)C2=C(O)c3ccc(F)cc3S(=O)(=O)N2C)s1
233 to 236	CCc1cccc(C)c1CNc1nc(C(=O)O)cc2c1nc(C)n2C
123 to 125	CCOC(=O)c1cnn2c(-c3cccc(NC(=O)C4CCC4)c3)ccnc12
183 to 185	CC(C)C(=O)Oc1ccc2c(c1)-c1ncc(C(=O)O)c(=O)n1CC2
89 to 90	O=C(CCCCCl)c1cc2c3c(c1)CC(=O)N3CCC2
192	CC(C)[Si](Oc1c(F)cc([C@@H](O)[C@@H](C)N2CCC(O)(c3ccc(Cl)cc3)CC2)cc1F)(C(C)C)C(C)C (relative stereo)
142 to 143	CCCOc1ccccc1-c1nc2nc(NCCC(=O)OCC)ncc2c(=O)[nH]1
210 to 214	O=C(O)c1ccccc1C(=O)N1Cc2cccn2Cc2ccccc21
48 to 50	COCCCc1cccc(C2(c3ccc(OC(F)F)cc3)N=C(N)N(C)C2=O)c1 (configuration not stated)
214 to 215	O=C1CCC(c2ccc(-n3cnc(CO)c3)cc2)=NN1
233 to 234	CN1CC=C(C(=O)N2c3ccccc3NC(=O)c3ccccc32)CC1
245	Cc1nc2cc(-c3ccc(C=C4SC(=O)NC4=O)cn3)cc(OCc3ccccc3)c2o1

melting point [°C]	SMILES
165	COc1ccc(Nc2nc(Cl)nc(Cl)n2)cc1Cl
199 to 200	CC(=O)NCC1CN(c2cc(F)c(N3CCN(C(=O)COC(=O)n4ccnc4)CC3)c(F)c2)C(=O)O1 (configuration not stated)
65 to 66	CNc1cc(Cl)ccc1C(C)=O
188	Cn1ncc2c(=O)n3c(nc21)SC(C)(C)C3
100 to 110	Cc1cc(SC2=C(O)CC(CCc3ccccn3)(C(C)C)OC2=O)c(C(C)(C)C)cc1CO (configuration not stated)
229	CCc1cn2c(N)c(Cl)cc(C(=O)NCC3CCN(CC4(O)CCOCC4)CC3)c2n1
218 to 219	CN1C(=O)c2cc(CCc3ccncc3)cnc2N(C2CC2)c2nc(Cl)ccc21
84 to 88	O=Cc1cc(Cl)c(Cl)c(Cl)n1
230 to 232	O=C1CNc2cc(Br)c(Cl)cc2N1
162 to 164	CC(C)(C)c1ccc(-c2ccc(C(=O)N=[N+]=[N-])s2)cc1
68 to 70	CNC(=O)CCc1ccc2cc(O[C@@H](C)[C@H](O)CCc3cccnc3)ccc2c1
137 to 138	CCN1C(=O)C(C(=O)Nc2ccccc2S(C)=O)c2cc3c(cc21)CCO3 (configuration not stated)
96 to 100	CNS(=O)(=O)c1ccc(-c2cccc(-c3nc(C(C)C)[nH]c3-c3cccc(C)n3)c2)cc1
51 to 52	CC(C)(C)OC(=O)C(=O)C=Cc1cccnc1
189	C[C@H]1Cn2c(=O)[nH]c3cc(N)cc(c32)CN1CC1CC1
135	COc1ccc2cc(-c3ccccc3)cc(CCNC(C)=O)c2c1
179 to 181	CNC(=S)N1CCC(c2nn(-c3ccc(F)cc3)c3ccccc23)CC1
137 to 140	CN(C)Cc1c(-c2ccc3sc(=O)n(C)c3c2)nc2ccccn12
32 to 34	COC(=O)c1sc(Cl)nc1C(F)(F)F
